Type in all cases: biochemical
For one test, the target named is JAK1 (Homo sapiens (Human), UniProt P23458). The experiment in a line: JAK Caliper Enzyme Assay at 1 mM ATP, JAK1. A digest of the protocol:
(§1)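 Recombinant human kinase domains phosphorylate a fluorescent synthetic peptide at 1 mM ATP, room temperature, with enzyme and time tuned for 20-30% conversion; EDTA-stopped. Product/substrate separated by microfluidic mobility shift; percent effect versus DMSO and positive controls fitted to IC50 (nM).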

A further test addresses TYK2 (Homo sapiens (Human), UniProt P29597). In words: JAK Caliper Enzyme Assay at 1 mM ATP, TYK2. In short, it runs like this: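 Recombinant human kinase domains phosphorylate a fluorescent synthetic peptide at 1 mM ATP and room temperature, with enzyme level and time tuned to 20–30% conversion before an EDTA stop. Microfluidic mobility-shift separation gives percent product from peak heights. Percent effect against plate controls (DMSO baseline) is plotted versus compound concentration.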

The next test has as its target JAK2 (Homo sapiens (Human), UniProt O60674). In words: JAK Caliper Enzyme Assay at 1 mM ATP, JAK2. The procedure: Compounds of the invention were evaluated by in vitro methods to determine their respective ability to inhibit the JAK kinases (TYK2, JAK1, JAK2, JAK3).
The human JAK inhibitory activity was determined by using a microfluidic assay to monitor phosphorylation of a synthetic peptide by the recombinant human kinase domain of each of the four members of the JAK family, JAK1, JAK2, JAK3 and TYK2. […] Each assay condition was optimized for enzyme concentration and room temperature incubation time to obtain a conversion rate of 20% to 30% phosphorylated peptide product. Reactions were terminated by the addition of stop buffer containing EDTA. Utilizing the LabChip 3000 mobility shift technology (Caliper Life Science), each assay reaction was sampled to determine the level of phosphorylation. This technology is separation-based, allowing direct detection of fluorescently labeled substrates and products. Separations are controlled by a combination of vacuum pressure and electric field strength optimized for each peptide substrate.
JAK Caliper Enzyme Assay at 1mM ATP
Compounds were added to a 384-well plate.
The data was collected using the HTS Well Analyzer software from Caliper Life Sciences. The data output for data analysis is the percent product converted calculated on peak height (Equation 1). % product converted=100*((product)/(product+substrate)) Equation 1: […]
The percent effect at each compound concentration was calculated based on the positive and negative control well contained within each assay plate (Equation 2). […] The negative control wells contained DMSO alone (at the same concentration as the compound wells) that was used to set the baseline activity in the assay (i.e., uninhibited JAK1, JAK2, JAK3 or TYK2). % effect=100*([…](positive control-negative control)) Equation 2: […]
The percent effect was plotted against the compound concentration compound.

Another test has as its target JAK3 (Homo sapiens (Human), UniProt P52333). In words: JAK Caliper Enzyme Assay at 1 mM ATP, JAK3. In short, it runs like this: as §1

Bounds are passed on as bounds.

Sequence of JAK3 (P52333 822-1111): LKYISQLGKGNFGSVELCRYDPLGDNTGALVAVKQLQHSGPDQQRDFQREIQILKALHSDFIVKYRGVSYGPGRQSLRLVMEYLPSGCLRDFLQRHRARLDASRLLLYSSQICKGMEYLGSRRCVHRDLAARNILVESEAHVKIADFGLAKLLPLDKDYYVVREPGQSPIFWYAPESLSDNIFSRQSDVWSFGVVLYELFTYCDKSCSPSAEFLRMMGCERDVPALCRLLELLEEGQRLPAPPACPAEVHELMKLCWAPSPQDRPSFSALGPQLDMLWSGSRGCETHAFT
Sequence of JAK2 (O60674 849-1124): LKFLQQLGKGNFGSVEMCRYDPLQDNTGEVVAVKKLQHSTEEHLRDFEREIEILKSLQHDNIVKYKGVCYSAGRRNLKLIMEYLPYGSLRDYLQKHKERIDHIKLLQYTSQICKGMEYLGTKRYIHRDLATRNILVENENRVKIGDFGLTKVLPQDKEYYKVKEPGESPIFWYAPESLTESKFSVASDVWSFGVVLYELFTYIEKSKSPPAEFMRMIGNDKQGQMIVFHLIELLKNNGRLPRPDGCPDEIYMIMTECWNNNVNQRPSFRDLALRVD
Sequence of JAK1 (P23458 875-1153): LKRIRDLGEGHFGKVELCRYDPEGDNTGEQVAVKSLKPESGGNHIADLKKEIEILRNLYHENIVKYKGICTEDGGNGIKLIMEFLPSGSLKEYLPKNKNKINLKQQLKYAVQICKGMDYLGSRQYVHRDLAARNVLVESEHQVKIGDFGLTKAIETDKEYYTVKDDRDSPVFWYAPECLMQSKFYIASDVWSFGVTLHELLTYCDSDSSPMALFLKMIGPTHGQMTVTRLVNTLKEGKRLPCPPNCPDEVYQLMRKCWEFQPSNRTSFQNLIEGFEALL
Sequence of TYK2 (P29597 897-1176): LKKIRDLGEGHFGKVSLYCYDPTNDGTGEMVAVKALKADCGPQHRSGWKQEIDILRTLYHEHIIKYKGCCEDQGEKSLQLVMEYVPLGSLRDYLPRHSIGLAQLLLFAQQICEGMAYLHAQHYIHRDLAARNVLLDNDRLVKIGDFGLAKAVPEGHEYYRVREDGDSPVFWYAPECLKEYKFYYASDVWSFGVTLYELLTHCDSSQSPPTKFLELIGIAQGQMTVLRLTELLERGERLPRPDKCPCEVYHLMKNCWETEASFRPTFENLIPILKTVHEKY

As to `Cc1cc(-c2cc3ncccc3c(-c3ccn([C@]4(CC#N)C[C@H](C#N)C4)n3)n2)n[nH]1` [Example 44, cis-3-(cyanomethyl)-3-{3-[7-(5-methyl-1H-pyrazol-3-yl)-1,6-naphthyridin-5-yl]-1H-pyrazol-1-yl}cyclobutanecarbonitrile], the IC50 on JAK1 worked out at 0.066 µM; on TYK2 it was 0.007 µM; on JAK2, 0.018 µM; at JAK3, 2.88 µM.

In the case of `Cc1cc(-c2cc3ncccc3c(-c3ccn([C@]4(CC#N)C[C@](C)(C#N)C4)n3)n2)n[nH]1` [Example 45, cis-3-(cyanomethyl)-1-methyl-3-{3-[7-(5-methyl-1H-pyrazol-3-yl)-1,6-naphthyridin-5-yl]-1H-pyrazol-1-yl}cyclobutanecarbonitrile], the IC50 is 0.739 µM at JAK1, 0.033 µM on TYK2, 0.125 µM on JAK2 and above 10 µM on JAK3.

As for `Cc1cc(-c2cc3ncccc3c(-c3ccn([C@]4(CC#N)C[C@@](C)(C#N)C4)n3)n2)n[nH]1` [Example 46, trans-3-(cyanomethyl)-1-methyl-3-{3-[7-(5-methyl-1H-pyrazol-3-yl)-1,6-naphthyridin-5-yl]-1H-pyrazol-1-yl}cyclobutanecarbonitrile], the IC50 at JAK1 was 9.68 µM; on TYK2 it was 0.867 µM; on JAK2 it was 2.77 µM; on JAK3, above 10 µM.

For `CCN1CC(CC#N)(n2ccc(-c3nc(-c4cc(CO)[nH]n4)cc4ncccc34)n2)C1` [Example 47, [1-ethyl-3-(3-{7-[5-(hydroxymethyl)-1H-pyrazol-3-yl]-1,6-naphthyridin-5-yl}-1H-pyrazol-1-yl)azetidin-3-yl]acetonitrile], the 50% inhibitory concentration (IC50) is 7.72 µM at JAK1, 0.254 µM on TYK2, 1.94 µM on JAK2 and above 10 µM on JAK3.

For the compound `N#CCC1(n2ccc(-c3nc(-c4cc(CO)[nH]n4)cc4ncccc34)n2)CC(C#N)C1` (stereo not drawn) [Example 48, trans-3-(cyanomethyl)-3-(3-{7-[5-(hydroxymethyl)-1H-pyrazol-3-yl]-1,6-naphthyridin-5-yl}-1H-pyrazol-1-yl)cyclobutanecarbonitrile], the half-inhibitory concentration (IC50) at JAK1 was 0.292 µM; at TYK2, 0.015 µM; on JAK2 it was 0.073 µM; at JAK3, above 10 µM.

`N#CC[C@]1(n2ccc(-c3nc(-c4cc(CO)[nH]n4)cc4ncccc34)n2)C[C@@H](C#N)C1` [Example 49, cis-3-(cyanomethyl)-3-(3-{7-[5-(hydroxymethyl)-1H-pyrazol-3-yl]-1,6-naphthyridin-5-yl}-1H-pyrazol-1-yl)cyclobutanecarbonitrile]: the IC50 at JAK1 is 0.042 µM; at TYK2, 0.007 µM; on JAK2, 0.016 µM; on JAK3, 2.32 µM.

Take `CO[C@H]1C[C@](CC#N)(n2ccc(-c3nc(-c4cc(CO)n[nH]4)cc4ncccc34)n2)C1` [Example 50, [trans-1-(3-{7-[3-(hydroxymethyl)-1H-pyrazol-5-yl]-1,6-naphthyridin-5-yl}-1H-pyrazol-1-yl)-3-methoxycyclobutyl]acetonitrile]: the IC50 was 2.75 µM on JAK1, 0.059 µM on TYK2, 0.861 µM at JAK2 and above 10 µM on JAK3.

As to `CO[C@H]1C[C@@](CC#N)(n2ccc(-c3nc(-c4cc(CO)n[nH]4)cc4ncccc34)n2)C1` [Example 51, [cis-1-(3-{7-[3-(hydroxymethyl)-1H-pyrazol-5-yl]-1,6-naphthyridin-5-yl}-1H-pyrazol-1-yl)-3-methoxycyclobutyl]acetonitrile], the 50% inhibitory concentration (IC50) on JAK1 was 1.91 µM; on TYK2, 0.045 µM; at JAK2, 0.509 µM; on JAK3, above 10 µM.

Regarding `CO[C@H]1C[C@@](CC#N)(n2ccc(-c3nc(-c4cc(N)[nH]n4)cc4ncccc34)n2)C1` [Example 52, (cis-1-{3-[7-(5-amino-1H-pyrazol-3-yl)-1,6-naphthyridin-5-yl]-1H-pyrazol-1-yl}-3-methoxycyclobutyl)acetonitrile], the concentration for half-maximal inhibition (IC50) was 0.379 µM on JAK1, 0.019 µM at TYK2, 0.235 µM at JAK2 and above 10 µM on JAK3.

For `CO[C@H]1C[C@](CC#N)(n2ccc(-c3nc(-c4cc(N)[nH]n4)cc4ncccc34)n2)C1` [Example 53, (trans-1-{3-[7-(5-amino-1H-pyrazol-3-yl)-1,6-naphthyridin-5-yl]-1H-pyrazol-1-yl}-3-methoxycyclobutyl)acetonitrile], the IC50 at JAK1 is 0.654 µM; on TYK2 it was 0.026 µM; at JAK2, 0.396 µM; at JAK3, above 10 µM.

Turning to `Cn1nccc1-c1cc2ncccc2c(-c2ccn(C3(CC#N)CN(CC(F)(F)F)C3)n2)n1` [Example 54, [3-{3-[7-(1-methyl-1H-pyrazol-5-yl)-1,6-naphthyridin-5-yl]-1H-pyrazol-1-yl}-1-(2,2,2-trifluoroethyl)azetidin-3-yl]acetonitrile], the IC50 is 2.3 µM on JAK1, 0.214 µM on TYK2, 2.1 µM at JAK2 and above 10 µM at JAK3.

Consider `Cn1ccc(-c2cc3ncccc3c(-c3ccn(C4(CC#N)CN(CC(F)(F)F)C4)n3)n2)n1` [Example 55, [3-{3-[7-(1-methyl-1H-pyrazol-3-yl)-1,6-naphthyridin-5-yl]-1H-pyrazol-1-yl}-1-(2,2,2-trifluoroethyl)azetidin-3-yl]acetonitrile], for which the half-inhibitory concentration (IC50) at JAK1 is 8.87 µM; at TYK2 it was 0.156 µM; at JAK2, 2.56 µM; at JAK3, above 10 µM.

In the case of `CS(=O)(=O)N1CC(CC#N)(n2ccc(-c3nc(-c4ccn(C5COC5)n4)cc4ncccc34)n2)C1` [Example 56, [1-(methylsulfonyl)-3-(3-{7-[1-(oxetan-3-yl)-1H-pyrazol-3-yl]-1,6-naphthyridin-5-yl}-1H-pyrazol-1-yl)azetidin-3-yl]acetonitrile], the half-inhibitory concentration (IC50) on JAK1 is above 10 µM; at TYK2, 0.225 µM; at JAK2, 1.48 µM; at JAK3, above 10 µM.

With `N#CCC1(n2ccc(-c3nc(-c4ccn(C5COC5)n4)cc4ncccc34)n2)CN(CC(F)(F)F)C1` [Example 57, [3-(3-{7-[1-(oxetan-3-yl)-1H-pyrazol-3-yl]-1,6-naphthyridin-5-yl}-1H-pyrazol-1-yl)-1-(2,2,2-trifluoroethyl)azetidin-3-yl]acetonitrile], the IC50 at JAK1 is above 10 µM; on TYK2, 0.257 µM; at JAK2, 2.35 µM; at JAK3 it was above 10 µM.

Take `Cc1cc(-c2cc3ncccc3c(-c3ccn([C@]4(CC#N)C[C@@H](C#N)C4)n3)n2)nn1C` [Example 58, trans-3-(cyanomethyl)-3-{3-[7-(1,5-dimethyl-1H-pyrazol-3-yl)-1,6-naphthyridin-5-yl]-1H-pyrazol-1-yl}cyclobutanecarbonitrile]: the IC50 at JAK1 is 7.43 µM; at TYK2, 0.034 µM; at JAK2, 0.51 µM; on JAK3, above 10 µM.

On to `Cc1cc(-c2cc3ncccc3c(-c3ccn([C@]4(CC#N)C[C@H](C#N)C4)n3)n2)nn1C` [Example 59, cis-3-(cyanomethyl)-3-{3-[7-(1,5-dimethyl-1H-pyrazol-3-yl)-1,6-naphthyridin-5-yl]-1H-pyrazol-1-yl}cyclobutanecarbonitrile], for which the IC50 at JAK1 was 0.88 µM; at TYK2, 0.016 µM; on JAK2, 0.092 µM; at JAK3, above 10 µM.

Take `Cn1nc(CO)cc1-c1cc2ncccc2c(-c2ccn([C@]3(CC#N)C[C@@H](C#N)C3)n2)n1` [Example 60, trans-3-(cyanomethyl)-3-(3-{7-[3-(hydroxymethyl)-1-methyl-1H-pyrazol-5-yl]-1,6-naphthyridin-5-yl}-1H-pyrazol-1-yl)cyclobutanecarbonitrile]: the half-maximal inhibitory concentration (IC50) on JAK1 is 3.85 µM; on TYK2, 0.19 µM; at JAK2, 0.915 µM; at JAK3, above 10 µM.

In the case of `Cn1nc(CO)cc1-c1cc2ncccc2c(-c2ccn([C@]3(CC#N)C[C@H](C#N)C3)n2)n1` [Example 61, cis-3-(cyanomethyl)-3-(3-{7-[3-(hydroxymethyl)-1-methyl-1H-pyrazol-5-yl]-1,6-naphthyridin-5-yl}-1H-pyrazol-1-yl)cyclobutanecarbonitrile], the IC50 at JAK1 is 0.521 µM; on TYK2, 0.039 µM; at JAK2, 0.123 µM; on JAK3, above 10 µM.

Values taken from US11254668B2, “Pyrazolo[1,5-A]pyrazin-4-yl and related derivatives” (Pfizer Inc., priority 2017, dated 2022).
